# Data published in patent publication US20180074045A1, “SYSTEM AND METHOD FOR HIGH THROUGHPUT SCREENING OF CANCER CELLS” (CANNABICS PHARMACEUTICALS INC, priority 2015, published 2018).
# Test system: U87MG glioblastoma cells
# Test: Cell viability imaging, extracts with various THC to CBD ratios
# Assay type: cell-based, human
# Settings: extracts with various THC to CBD ratio, adjusted to 5 μM THC, 24 hours, 96-well; FIG. 6
# Protocol: Cells were harvested three days before exposure and seeded (about 50,000-200,000 cells/well) into a 24-well microplate. The medium was replaced in respective culture medium containing 0.5% FBS, and vehicle (DMSO) or cannabis extracts (1-10 μg/ml) were added to the medium for 24-48 hours in duplicates.
# The effect of cannabinoid compounds on cell viability was measured using high-content screening analysis. For example, differentiation of subpopulations of cells within the same well was analysed by distinguishing: live versus necrotic cells, early apoptotic cells and late apoptotic cells.
# Cells were imaged in ImageXpress micro (see FIG. 2), and analyzed using MetaXpress and the Cell Cycle module.
# Reference is now made to FIG. 6 showing images of glioblastoma cell lines treated with selected cannabis extracts comprising various THC to CBD ratio. In this study, 10,000 U87MG glioblastoma cells were plated into a 96-well microplate and treated with vehicle (DMSO) or cannabis extracts. It is noted that the extracts were delectated to reach 5 μM THC. Cells were imaged after 24 hours using the ImageXpress micro.
smiles,measurement,value
"C=C(C)[C@@H]1CCC(C)=C[C@H]1c1c(O)cc(CCCCC)cc1O [CBD, cannabidiol]",U87MG glioblastoma cells viability,plays a role in reducing U87MG glioblastoma cells viability
